# Experimental data: the METLIN SMRT retention time set (Domingo-Almenara et al. 2019)
# Assay: gradient 5% acetonitrile 3 min, to 50% in 2 min, to 85% in 15 min, held 3 min, 100 µL/min
# Details: column: Zorbax Extend-C18 2.1 x 50 mm; eluents: water / acetonitrile, 0.1% formic acid
# How it was run: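 Using water and acetonitrile that each contained 0.1% formic acid, mixtures of ~100 pure standards were separated at 100 μL/min on a Zorbax Extend-C18 column (2.1 × 50 mm, 1.8 μm). The HPLC fed a quadrupole time-of-flight mass spectrometer working in positive and negative ionization mode, with dead and dwell volumes of 40 μL and 900 μL. Data were acquired over 3 months. Retention time was read from computationally picked adduct peaks after manual inspection of each.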
row,SMILES,RP-LC retention time
1,O=S(=O)(c1ccc(Cl)s1)N1CCc2nc(-c3ccccc3)ncc2C1,1170 s
2,CCOc1ccc(-n2c(N(CC)CC)nc3cc(C(=O)OC)ccc3c2=O)cc1,1230 s
3,COc1ccc(S(=O)(=O)N2CCCC(C(=O)NC3CCCC3)C2)cc1OC (configuration not stated),802 s
4,CCOc1ccc(CC(=O)N2CCCC2c2nc(-c3ccccc3Cl)no2)cc1OCC (configuration not stated),1050 s
5,Cc1ccc(NS(=O)(=O)c2cc(-c3[nH]ncc3C(=O)N3CCOCC3)oc2C)cc1F,695 s
6,CCCN1CCn2cc(S(=O)(=O)Nc3ccccc3F)cc2C1=O,718 s
7,Clc1ccccc1-n1ncc2c(NCc3ccco3)ncnc21,719 s
8,O=C(Nc1cccc(F)c1)c1nnc(CCCC(=O)N2CCN(c3ccccn3)CC2)s1,646 s
9,COc1ccc(NC(=O)C2CC(=O)N(c3ccc4oc(C)nc4c3)C2)cc1F (configuration not stated),733 s
10,Cc1ccc(N(C)C(=O)C2CCCN(c3ncnc4c3nc3n4CCCCC3)C2)cc1C (configuration not stated),897 s
11,Cc1nc(C(C)C)ncc1C(=O)Nc1ccc(Br)cc1F,907 s
12,Cc1cc(C(=O)Nc2cccc3ccccc23)n(-c2ccccc2)n1,908 s
13,COc1ccc(N2CCN(c3cc(SCC(=O)Nc4ccc(C)cc4F)ncn3)CC2)cc1,1110 s
14,CCn1cc(CCNC(=O)Nc2cc(C)ccc2C)c2cccnc21,723 s
15,Cc1ccc(-c2nnc(N3CCC(C(=O)NCCN4CCCCC4C)CC3)o2)cc1 (configuration not stated),624 s
16,Cn1cnnc1C1CCCCN1C(=O)c1cc(-c2cccs2)[nH]n1 (configuration not stated),637 s
17,Cc1ccc(NC(=O)NCC(c2cccnc2)c2cn(C)c3ccccc23)cc1F (configuration not stated),722 s
18,O=C(c1cn(-c2cc(N3CCSCC3)ncn2)cn1)N1CCN(c2ccccn2)CC1,624 s
19,O=C(NC1CCCC1)C1CCCCN1S(=O)(=O)c1ccc(Br)cc1 (configuration not stated),1040 s
20,O=C(Nc1cnn(-c2ncncc2N2CCOCC2)c1)C1CCCC1,624 s
21,CCOC(=O)C1CCCN(C(=O)CCC(=O)N2CCCn3nc(C)cc32)C1 (configuration not stated),647 s
22,O=C(Cn1cnc2nc(N3CCCC(C(=O)NC4CC4)C3)sc2c1=O)NCc1ccccc1 (configuration not stated),646 s
23,C=CCn1c(=O)c2ccccc2n(Cc2nc(-c3ccccc3C)no2)c1=O,1080 s
24,O=C(O)c1cnc(N2CCOCC2)nc1-c1cccc(Cl)c1,770 s

# Next, values leading:
row,RP-LC retention time,SMILES
1,899 s,Cn1c(=O)n(C)c2cc(N3CCOCC3)c(NC(=O)COc3ccc(Cl)cc3)cc21
2,563 s,Cc1ccc(Nc2cc(N3CCN(C(=O)COc4ncccn4)CC3)nc(C)n2)cc1
3,924 s,Cc1nn(CC(=O)N2CCN(c3ccccc3)CC2)c(=O)c2nc(-c3ccccc3)sc12
4,985 s,COc1ccc(Cc2nnc(SCC(=O)Nc3nc(-c4ccccc4)cs3)o2)cc1
5,910 s,CCc1ccc(OCc2nc(CCN(C)C(=O)c3ccco3)no2)cc1
6,573 s,CC(C)c1nccn1C1CN(C(=O)COc2ccc(F)cc2)C1
7,792 s,COc1ccccc1CNC(=O)CCc1csc(NC(=O)c2ccc(F)cc2)n1
8,873 s,Cc1oc2ccn(Cc3ccc(F)cc3)c(=O)c2c1C(=O)O
9,830 s,CCc1nc2cc(-c3noc(-c4cnccn4)n3)ccc2o1
10,808 s,Cc1cccc(NC(=O)N2CCC3(C2)C(=O)N(C)c2ccccc23)c1 (configuration not stated)
11,656 s,CS(=O)(=O)N(Cc1ccccn1)C1CN(C(=O)CCc2nc3ccccc3s2)C1
12,656 s,CC(C)c1nc2ccc(C(=O)NCCN(C)C3CCCCC3)cc2o1
13,741 s,O=C(Cn1nc(-c2cccs2)ccc1=O)Nc1nc2c(s1)CCCC2
